Test in all cases: inhibition of tumour cell growth, NCI panel, 48 h
Experiment [1] has as its system Malme-3M.
The test system of experiment [2] is U-251.
Experiment [3] deals with HCT-116.
The test system of experiment [4] is SF-539.
The subject of experiment [5] is CAKI-1.
The subject of experiment [6] is OVCAR-3.
Experiment [7] deals with SW-620.
The test system of experiment [8] is SNB-19.
Experiment [9] relates to DU-145.
The test system of experiment [10] is A549.
The test system of experiment [11] is MDA-MB-435.
Experiment [12] deals with NCI-H226.
The subject of experiment [13] is NCI-H460.
The test system of experiment [14] is M14.
Experiment [15] deals with UACC-257.
Experiment [16] deals with 786-0.
The test system of experiment [17] is CCRF-CEM.
Experiment [18] concerns TK-10.
Experiment [19] deals with KM12.
Experiment [20] has as its system SR.

The structures appear in SMILES notation.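 Results reflect a 48-hour exposure of cells in 96-well plates to compound at five concentrations. GI50 marks 50% less growth.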 The source made the active and inactive calls. No stated cut-off is given here; in the data, active = GI50 up to about 1.1 µM and inactive = higher.

On to `COC(=O)c1ccc(CCC2=CC(=O)C(Br)=CC2=O)cc1`, for which the GI50 in experiment [1] is 16.9 µM (inactive); in experiment [2] it was 16.7 µM (inactive); in experiment [3], 16 µM (inactive); in [4], 17.8 µM (inactive); in [5], 13.6 µM (inactive); in experiment [6], 15.3 µM (inactive). The GI50 in experiment [7] is 13.6 µM (inactive); in experiment [8], 15.6 µM (inactive); in [9] it was 18.1 µM (inactive); in [10], 19.4 µM (inactive); in experiment [11], 16.1 µM (inactive); in experiment [12] it was 14.7 µM (inactive). The GI50 is 18.2 µM (inactive) in experiment [13]; 14.7 µM (inactive) in experiment [14]; 15.6 µM (inactive) in experiment [15]; 19.8 µM (inactive) in experiment [16]; 0.615 µM (active) in experiment [17]; 17.3 µM (inactive) in experiment [18]. Further, the GI50 in [19] was 15.2 µM (inactive); in [20] it was 2.97 µM (inactive).

Consider `C[C@]12CC[C@@H]3c4ccc(O)cc4CC[C@H]3[C@@H]1C/C(=C\c1ccc(C#N)cc1)C2=O`, for which the GI50 is 28.3 µM (inactive) in [1]; 24.7 µM (inactive) in experiment [2]; 32.9 µM (inactive) in experiment [3]; 36.5 µM (inactive) in experiment [4]; 82.8 µM (inactive) in experiment [5]; 21.9 µM (inactive) in [6]. For the same compound, the GI50 is 24.5 µM (inactive) in [7]; 52.4 µM (inactive) in [8]; 57.4 µM (inactive) in [9]; 30.8 µM (inactive) in experiment [10]; 19.4 µM (inactive) in experiment [11]; 37.9 µM (inactive) in [12]. Moreover, the GI50 is 36.1 µM (inactive) in [13]; 41.8 µM (inactive) in experiment [14]; 30.8 µM (inactive) in [15]; 35.7 µM (inactive) in experiment [16]; 34.4 µM (inactive) in [17]; 34.1 µM (inactive) in experiment [18]. For the same compound, the results for the GI50 in [19] and in experiment [20] were 23.1 µM (inactive) and 50 µM (inactive), respectively.

On to `Cc1cnc2sn(-c3ccc(Br)cc3)c(=O)c2c1`, for which the GI50 in [1] is 15.1 µM (inactive); in experiment [2], 27.1 µM (inactive); in experiment [3], 42.8 µM (inactive); in experiment [4], 31.3 µM (inactive); in [5], 16.7 µM (inactive); in [6] it was 22.2 µM (inactive). Also, the GI50 is 28.6 µM (inactive) in experiment [7]; 40.9 µM (inactive) in [8]; 50.5 µM (inactive) in experiment [9]; 36.6 µM (inactive) in experiment [10]; 40 µM (inactive) in experiment [11]; 52 µM (inactive) in [12]. Also, the GI50 in experiment [13] was 32.5 µM (inactive); in [14], 41.2 µM (inactive); in [15] it was 45.2 µM (inactive); in experiment [16], 37.5 µM (inactive); in experiment [17] it was 24.4 µM (inactive); in experiment [18], 93.5 µM (inactive). Besides, the GI50 in [19] is 74.8 µM (inactive); in experiment [20], 40.7 µM (inactive).

In the case of `CC(=O)SCCC(NC(=S)Nc1ccccc1)P(=O)(Oc1ccccc1)Oc1ccccc1` (stereo not given), the GI50 in experiment [1], in experiment [2], in [3], in experiment [4], in experiment [5] and in experiment [6] was > 100 µM (inactive) throughout. For the same compound, the GI50 in [7], in experiment [8], in experiment [9], in experiment [10], in [11] and in [12] was > 100 µM (inactive) throughout. The GI50 was > 100 µM (inactive) in experiment [13]; > 100 µM (inactive) in experiment [14]; > 100 µM (inactive) in [15]; > 100 µM (inactive) in experiment [16]; > 100 µM (inactive) in [17]; 60.8 µM (inactive) in experiment [18]. In addition, the GI50 in [19] and in experiment [20] was > 100 µM (inactive) in each case.
